Data from patent publication US20240190916A1, “NOVEL PEPTIDE” (HYSENSBIO, priority 2022, published 2024).

Experiments:
Type in all cases: cell-based
BSP gene = test: BSP mRNA level by real-time PCR in human-derived mesenchymal stem cells; details: compared to untreated control
Method: (§1) It was cultured at 37° C. in humid air containing 5% CO2 and used for the experiment. Human mesenchymal stem cells (hBMSCs) were purchased from Lonza (LONZA, Switzerland) and used. hBMSCs were cultured in a-MEM (Invitrogen) medium supplemented with 10% heat-inactivated bovine serum.
(§2) Total RNA of human dental pulp cells and mesenchymal stem cells was isolated using a TRIzol reagent. cDNA was synthesized using 2 μg of total RNA, 1 μl of reverse transcriptase, and 0.5 μg of oligo (dT). The synthesized cDNA was used for real-time polymerase chain reaction. The real-time polymerase chain reaction was performed in ABI PRISM 7500 sequence detection system (Applied Biosystems) using SYBR GREEN PCR Master Mix (Takara, Japan). The real-time polymerase chain reaction was performed at 94° C., 1 min; 95° C., 15 sec-60° C., 34 sec was performed under the condition of repeating 40 cycles. An analysis of the results was evaluated using a comparative cycle threshold (CT) method, and primer base sequences are listed in Table 9.
(§3) BSP and DMP1 genes are used as markers for differentiation of osteoblasts and cementoblasts, and are known as important genes for calcification of a bone and cementum. The effects of each group of peptides on BSP and DMP1 mRNA expression were confirmed by a real-time PCR (Tables 11 and 12).

DMP1 gene = test: DMP1 mRNA level by real-time PCR in human-derived mesenchymal stem cells; details: compared to untreated control
Method: as §1, §2, §3

DSPP gene = test: DSPP mRNA level by real-time PCR in human dental pulp cells; details: peptide 10 ug/ml, compared to untreated control
Method: Human pulp tissue cells were isolated from wisdom teeth of 10 adults (18-22 years old) at Seoul National University Dental Hospital. Specifically, all experiments were performed with the patient's consent after approval from the hospital's Institutional Review Board, and wisdom teeth are cut according to a method of Jung H S et al (J Mol Histol. (2011)), exposing the pulp and isolating the pulp with forceps. The isolated pulp was minced on both sides, placed in a 60 mm dish, covered with a cover slip, and then cultured in Dulbecco's Modified Eagle medium. It is known that human dental pulp cells can differentiate into odontoblasts, osteoblasts, cementoblasts and periodontal ligament cells under various conditions (Tissue Eng Part A. 2014 April; 20(7-8): 1342-51).
as §2
The effect of each group of peptides on DSPP mRNA expression was confirmed by real-time PCR (Table 10).

Sequence	mRNA level of BSP gene, BSP gene expression, Average (BSP gene) [fold]	mRNA level of DMP1 gene, DMP1 gene expression, Average (DMP1 gene) [fold]	mRNA level of DSPP gene, Average (DSPP gene) [fold]
KYKAKRRSYK [SEQ ID NO: 13]	2.637	9.237	2.535
KYKARKKNYK [SEQ ID NO: 4]	2.307	9.720	9.702
KYKARKKSYK [SEQ ID NO: 12]	1.918	7.997	2.911
KYKARKRNYK [SEQ ID NO: 8]	2.617	11.120	7.021
KYKARKRSYK [SEQ ID NO: 16]	2.307	10.014	2.906
KYKARRKNYK [SEQ ID NO: 6]	2.935	9.897	7.705
KYKARRKSYK [SEQ ID NO: 14]	1.729	9.407	2.136
KYKARRRNYK [SEQ ID NO: 7]	2.548	10.236	8.215
KYKARRRSYK [SEQ ID NO: 15]	2.119	8.991	3.620
KYRAKKKNYK [SEQ ID NO: 17]	2.392	9.400	2.192
KYRAKKKSYK [SEQ ID NO: 25]	2.152	9.055	1.919
KYRAKKRNYK [SEQ ID NO: 18]	2.316	9.161	2.061
KYRAKKRSYK [SEQ ID NO: 26]	2.081	8.991	1.811
KYRAKRKNYK [SEQ ID NO: 19]	2.537	8.999	1.772
KYRAKRKSYK [SEQ ID NO: 27]	2.195	8.537	1.620
KYRAKRRNYK [SEQ ID NO: 21]	1.995	9.100	2.167
KYRAKRRSYK [SEQ ID NO: 29]	1.978	9.525	2.125
